Target: T1, human DP2 receptor (Homo sapiens, UniProt Q9Y5Y4)
T1 construct: expressed in transfected cells
T1 sequence (Q9Y5Y4 1-395): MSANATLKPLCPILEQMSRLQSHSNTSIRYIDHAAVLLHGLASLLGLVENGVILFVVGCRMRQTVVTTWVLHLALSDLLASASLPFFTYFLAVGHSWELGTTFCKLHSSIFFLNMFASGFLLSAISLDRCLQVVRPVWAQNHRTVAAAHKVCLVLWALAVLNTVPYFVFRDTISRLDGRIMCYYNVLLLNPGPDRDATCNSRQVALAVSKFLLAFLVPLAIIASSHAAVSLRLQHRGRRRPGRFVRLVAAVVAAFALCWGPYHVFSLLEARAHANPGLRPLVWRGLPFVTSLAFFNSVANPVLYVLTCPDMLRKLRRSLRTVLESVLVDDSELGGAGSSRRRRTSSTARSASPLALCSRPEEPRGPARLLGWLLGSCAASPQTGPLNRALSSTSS
Experiment: DP2/CRTH2 binding assay (radioligand binding with [3H]PGD2)
Conditions: [3H]PGD2 binding, membranes of HEK293 cells expressing recombinant human DP2; read-out: hDP2
Protocol: The ability of a compound to bind to the human DP2 receptor is assessed via a radioligand binding assay using [^3H]PGD2. HEK293 cells stably expressing recombinant human DP2 are resuspended in 10 mM Hepes, 7.4 containing 1 mM DTT, lysed and centrifuged at 75,000×g to pellet the membranes. The membranes are resuspended in 10 mM Hepes, 7.4 containing 1 mM DTT and 10% glycerol to approximately 5 mg protein/ml. Membranes (2-10 μg protein/well) are incubated in 96-well plates with 1 nM [^3H]PGD2 and test compound in Assay Buffer (50 mM Hepes, 10 mM MnCl2, 1 mM EDTA, plus or minus 0.2% human serum albumin, pH 7.4) for 60 minutes at room temperature. The reactions are terminated by rapid filtration through Whatman GF/C glass fibre filter plates. The filter plates were pre-soaked in 0.33% polythylenimine for 30 minutes at room temperature then washed in Wash Buffer (50 mM Hepes, 0.5 M NaCl pH 7.4) prior to harvesting. After harvesting, the filter plates are washed 3 times with 1 ml cold Wash Buffer then dried. Scintillant is then added to the plates and the radioactivity retained on the filters is determined on a Packard TopCount (Perkin Elmer). Specific binding is determined as total radioactive binding minus non-specific binding in the presence of 10 μM PGD2. IC50s were determined using GraphPad prism analysis of drug titration curves.

SMILES	IC50
CCN(Cc1cc(C(F)(F)F)ccc1-c1cncc(CC(=O)O)c1)C(=O)COC [Compound 34, [5-(2-{[N-Ethyl-N-(2-methoxy-acetyl)-amino]-methyl}-4-trifluoromethyl-phenyl)-pyridin-3-yl]-acetic acid]	300 to 1000 nM
CCOCC(=O)N(CC)Cc1cc(C(F)(F)F)ccc1-c1cncc(CC(=O)O)c1 [Compound 35, [5-(2-{[N-(2-Ethoxy-acetyl)-N-ethyl-amino]-methyl}-4-trifluoromethyl-phenyl)-pyridin-3-yl]-acetic acid]	300 to 1000 nM
CCN(Cc1cc(C(F)(F)F)ccc1-c1cncc(CC(=O)O)c1)C(=O)CCc1cccnc1 [Compound 36, [5-(2-{[N-Ethyl-N-(3-pyridin-3-yl-propionyl)-amino]-methyl}-4-trifluoromethyl-phenyl)-pyridin-3-yl]-acetic acid]	300 to 1000 nM
CCN(Cc1cc(C(F)(F)F)ccc1-c1cc(CC(=O)O)cnc1O)C(=O)C1CC1 [Compound 38, (5-{2-[(N-Cyclopropanecarbonyl-N-ethyl-amino)-methyl]-4-trifluoromethyl-phenyl}-6-hydroxy-pyridin-3-yl)-acetic acid]	300 to 1000 nM
CCN(Cc1cc(C(F)(F)F)ccc1-c1cc(CC(=O)O)cnc1OC)C(=O)OCc1ccccc1 [Compound 40, (5-{2-[(N-Benzyloxycarbonyl-N-ethyl-amino)-methyl]-4-trifluoromethyl-phenyl}-6-methoxy-pyridin-3-yl)-acetic acid]	< 300 nM
CCN(Cc1cc(C(F)(F)F)ccc1-c1cc(CC(=O)O)cnc1OC)C(C)=O [Compound 41, (5-{2-[(N-Acetyl-N-ethyl-amino)-methyl]-4-trifluoromethyl-phenyl}-6-methoxy-pyridin-3-yl)-acetic acid]	300 to 1000 nM
CCN(Cc1cc(C(F)(F)F)ccc1-c1cc(CC(=O)O)cnc1OC)C(=O)COC [Compound 42, [5-(2-{[N-Ethyl-N-(2-methoxy-acetyl)-amino]-methyl}-4-trifluoromethyl-phenyl)-6-methoxy-pyridin-3-yl]-acetic acid]	< 300 nM
CCOC(=O)N(CC)Cc1cc(C(F)(F)F)ccc1-c1cc(CC(=O)O)cnc1OC [Compound 43, (5-{2-[(N-Ethoxycarbonyl-N-ethyl-amino)-methyl]-4-trifluoromethyl-phenyl}-6-methoxy-pyridin-3-yl)-acetic acid]	< 300 nM
O=C(O)CCn1c2c(c3ccccc31)C[C@H](NS(=O)(=O)c1ccc(F)cc1)CC2 [Ramatroban, reference compound]	300 to 1000 nM

The next lines start with the values.

IC50	SMILES
< 300 nM	CCN(Cc1cc(C(F)(F)F)ccc1-c1cncc(CC(=O)O)c1)C(=O)Cc1ccc(Cl)nc1 [Compound 31, {5-[2-({N-[2-(6-Chloro-pyridin-3-yl)-acetyl]-N-ethyl-amino}-methyl)-4-trifluoromethyl-phenyl]-pyridin-3-yl}-acetic acid]
< 300 nM	CCOc1cc(OCC)nc(CC(=O)N(CC)Cc2cc(C(F)(F)F)ccc2-c2cncc(CC(=O)O)c2)n1 [Compound 32, {5-[2-({N-[2-(4,6-Diethoxy-pyrimidin-2-yl)-acetyl]-N-ethyl-amino}-methyl)-4-trifluoromethyl-phenyl]-pyridin-3-yl}-acetic acid]
< 300 nM	CCN(Cc1cc(C(F)(F)F)ccc1-c1cncc(CC(=O)O)c1)C(=O)Cc1ccccn1 [Compound 33, [5-(2-{[N-Ethyl-N-(2-pyridin-2-yl-acetyl)-amino]-methyl}-4-trifluoromethyl-phenyl)-pyridin-3-yl]-acetic acid]
< 300 nM	CCN(Cc1cc(C(F)(F)F)ccc1-c1cncc(CC(=O)O)c1)C(=O)Cc1ccc(C)nc1 [Compound 37, {5-[2-({N-Ethyl-N-[2-(6-methyl-pyridin-3-yl)-acetyl]-amino}-methyl)-4-trifluoromethyl-phenyl]-pyridin-3-yl}-acetic acid]
< 300 nM	CCN(Cc1cc(C(F)(F)F)ccc1-c1cc(CC(=O)O)cnc1OCC(F)(F)F)C(=O)C1CC1 [Compound 39, [5-{2-[(N-Cyclopropanecarbonyl-N-ethyl-amino)-methyl]-4-trifluoromethyl-phenyl}-6-(2,2,2-trifluoro-ethoxy)-pyridin-3-yl]-acetic acid]

Reference: patent US8049015B2 (Panmira Pharmaceuticals, LLC, priority 2008, dated 2011)
